Measured values published in patent US10413535B2, “Pharmaceutical compositions comprising an integrin ALPHA4 antagonist for use in treating ocular inflammatory conditions” (AXEROVISION, INC., priority 2015, dated 2019).
Read-outs that look alike come from different tables or passages of the source.

Assay: Toxicokinetics in 13-week topical ocular dog study
Conditions: beagle, in vivo, topical or ocular
Method: GW559090A was given to Beagle Dogs by topical ocular administration for 13 weeks. Animals were dosed six or twelve times per day, with one hour between doses. Treatment groups were: (1) vehicle (12 times a day), (2) 30 mg/mL/occasion given six times a day, (3) 50 mg/mL/occasion given six times a day, or (4) 50 mg/mL/occasion, given 12 times a day.
GW559090A was formulated as a stock solution in 25 mM phosphate buffer with 0.5% sodium chloride to provide a 50 mg/mL stock solution, which was used for administration to Groups 3 or 4, or further diluted with 25 mM phosphate buffer with 0.75% sodium chloride to provide a 30 mg/mL solution for administration to Group 2.
During the 13 week treatment period dogs received daily topical ocular doses of GW559090 or vehicle (12 times a day) at a constant dose volume of 0.06 mL (given 6 or 12 times a day, with one hour between doses). The test article formulation or vehicle was carefully dropped into the everted lower eyelid of the left eye from a suitable distance, to prevent contact of the positive displacement pipette with the eye. The lower and upper lids were then gently held together for approximately five seconds, to prevent loss of dose and aid even distribution across the external ocular surface. The un-dosed eye was not manipulated at any time and served as a within animal untreated control site.

With `Cc1ccccc1OCC(=O)N[C@@H](CC(C)C)C(=O)N[C@@H](Cc1ccc(OC(=O)N2CCC(C(N)=O)CC2)cc1)C(=O)O` [GW559090, (2S)-3-[4-({[4-(Aminocarbonyl)-1-piperidinyl]carbonyl}oxy)phenyl]-2-[((2S)-4-methyl-2-{[2-(2-methylphenoxy)acetyl]amino}pentanoyl)amino]propanoic acid] the AUC(0-t) (female, 50 mg/mL/occasion, female dogs, 50 mg/mL, 12 daily doses, Week 13, read-out: AUC0-1) was 12.1 ng·h/mL, the AUC(0-t) (female, 50 mg/mL/occasion, female dogs, 50 mg/mL, 12 daily doses, Week 13, read-out: AUC0-24) was 146 ng·h/mL and the Cmax (female, 50 mg/mL/occasion, female dogs, 50 mg/mL, 12 daily doses, Week 13, read-out: Cmax) was 30.5 ng/mL. For the same compound, the AUC(0-t) (male, 30 mg/mL/occasion, male dogs, 30 mg/mL, 6 daily doses, Day 1, read-out: AUC0-1) was 3.82 ng·h/mL, the AUC(0-t) (male, 30 mg/mL/occasion, male dogs, 30 mg/mL, 6 daily doses, Day 1, read-out: AUC0-24) was 22.9 ng·h/mL and the Cmax (male, 30 mg/mL/occasion, male dogs, 30 mg/mL, 6 daily doses, Day 1, read-out: Cmax) was 7.41 ng/mL. It also gave a Tmax (male, 30 mg/mL/occasion, male dogs, 30 mg/mL, 6 daily doses, Week 4) of 15 min, an AUC(0-t) (male, 30 mg/mL/occasion, male dogs, 30 mg/mL, 6 daily doses, Week 4, read-out: AUC0-1) of 2.27 ng·h/mL and an AUC(0-t) (male, 30 mg/mL/occasion, male dogs, 30 mg/mL, 6 daily doses, Week 4, read-out: AUC0-24) of 13.6 ng·h/mL. It also gave a Cmax (male, 30 mg/mL/occasion, male dogs, 30 mg/mL, 6 daily doses, Week 4, read-out: Cmax) of 5.3 ng/mL, a Tmax (male, 30 mg/mL/occasion, male dogs, 30 mg/mL, 6 daily doses, Week 13) of 30 min and an AUC(0-t) (male, 30 mg/mL/occasion, male dogs, 30 mg/mL, 6 daily doses, Week 13, read-out: AUC0-1) of 3.81 ng·h/mL. The AUC(0-t) (male, 30 mg/mL/occasion, male dogs, 30 mg/mL, 6 daily doses, Week 13, read-out: AUC0-24) was 22.9 ng·h/mL, the Cmax (male, 30 mg/mL/occasion, male dogs, 30 mg/mL, 6 daily doses, Week 13, read-out: Cmax) was 7.03 ng/mL and the Tmax (male, 50 mg/mL/occasion, male dogs, 50 mg/mL, 6 daily doses, Day 1) was 4.98 min. The AUC(0-t) (male, 50 mg/mL/occasion, male dogs, 50 mg/mL, 6 daily doses, Day 1, read-out: AUC0-1) was 18.4 ng·h/mL, the AUC(0-t) (male, 50 mg/mL/occasion, male dogs, 50 mg/mL, 6 daily doses, Day 1, read-out: AUC0-24) was 110 ng·h/mL and the Cmax (male, 50 mg/mL/occasion, male dogs, 50 mg/mL, 6 daily doses, Day 1, read-out: Cmax) was 52.8 ng/mL. The Tmax (male, 50 mg/mL/occasion, male dogs, 50 mg/mL, 6 daily doses, Week 4) was 10 min, the AUC(0-t) (male, 50 mg/mL/occasion, male dogs, 50 mg/mL, 6 daily doses, Week 4, read-out: AUC0-1) was 8.74 ng·h/mL and the AUC(0-t) (male, 50 mg/mL/occasion, male dogs, 50 mg/mL, 6 daily doses, Week 4, read-out: AUC0-24) was 52.4 ng·h/mL. For the same compound, the Cmax (male, 50 mg/mL/occasion, male dogs, 50 mg/mL, 6 daily doses, Week 4, read-out: Cmax) was 24.2 ng/mL, the Tmax (male, 50 mg/mL/occasion, male dogs, 50 mg/mL, 6 daily doses, Week 13) was 15 min and the AUC(0-t) (male, 50 mg/mL/occasion, male dogs, 50 mg/mL, 6 daily doses, Week 13, read-out: AUC0-1) was 6.36 ng·h/mL. For the same compound, the AUC(0-t) (male, 50 mg/mL/occasion, male dogs, 50 mg/mL, 6 daily doses, Week 13, read-out: AUC0-24) was 38.2 ng·h/mL, the Cmax (male, 50 mg/mL/occasion, male dogs, 50 mg/mL, 6 daily doses, Week 13, read-out: Cmax) was 13.2 ng/mL and the Tmax (male, 50 mg/mL/occasion, male dogs, 50 mg/mL, 12 daily doses, Day 1) was 22.5 min. For the same compound, the AUC(0-t) (male, 50 mg/mL/occasion, male dogs, 50 mg/mL, 12 daily doses, Day 1, read-out: AUC0-1) was 36.6 ng·h/mL, the AUC(0-t) (male, 50 mg/mL/occasion, male dogs, 50 mg/mL, 12 daily doses, Day 1, read-out: AUC0-24) was 439 ng·h/mL and the Cmax (male, 50 mg/mL/occasion, male dogs, 50 mg/mL, 12 daily doses, Day 1, read-out: Cmax) was 69.7 ng/mL. It also gave a Tmax (male, 50 mg/mL/occasion, male dogs, 50 mg/mL, 12 daily doses, Week 4) of 15 min, an AUC(0-t) (male, 50 mg/mL/occasion, male dogs, 50 mg/mL, 12 daily doses, Week 4, read-out: AUC0-1) of 11.8 ng·h/mL and an AUC(0-t) (male, 50 mg/mL/occasion, male dogs, 50 mg/mL, 12 daily doses, Week 4, read-out: AUC0-24) of 142 ng·h/mL. It also gave a Cmax (male, 50 mg/mL/occasion, male dogs, 50 mg/mL, 12 daily doses, Week 4, read-out: Cmax) of 23.8 ng/mL, a Tmax (male, 50 mg/mL/occasion, male dogs, 50 mg/mL, 12 daily doses, Week 13) of 15 min and an AUC(0-t) (male, 50 mg/mL/occasion, male dogs, 50 mg/mL, 12 daily doses, Week 13, read-out: AUC0-1) of 10.2 ng·h/mL. The AUC(0-t) (male, 50 mg/mL/occasion, male dogs, 50 mg/mL, 12 daily doses, Week 13, read-out: AUC0-24) was 122 ng·h/mL and the Cmax (male, 50 mg/mL/occasion, male dogs, 50 mg/mL, 12 daily doses, Week 13, read-out: Cmax) was 26.8 ng/mL.
